Read-outs that look alike come from different tables or passages of the source.
Tests used:
[1] = target: EGFR Del19/C797S (Homo sapiens, UniProt P00533, C797S/DEL746-750); assay: Biochemical EGFR kinase inhibition assay (Lance Ultra TR-FRET), double mutant del19/C797S
Procedure, shortened: (§1)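 Step 1: compound in kinase buffer, 0.003–10 μM. Step 2: kinase reaction 1 h at room temperature. Step 4: TR-FRET read at 615/665 nm; IC50 calculated.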

[2] = target: EGFR L858R/T790M/C797S (Homo sapiens, UniProt P00533, C797S/L858R/T790M); assay: Biochemical EGFR kinase inhibition assay (Lance Ultra TR-FRET), triple mutant L858R/T790M/C797S
Sequence of EGFR L858R/T790M/C797S (P00533 25-1210 T790M/C797S/L858R): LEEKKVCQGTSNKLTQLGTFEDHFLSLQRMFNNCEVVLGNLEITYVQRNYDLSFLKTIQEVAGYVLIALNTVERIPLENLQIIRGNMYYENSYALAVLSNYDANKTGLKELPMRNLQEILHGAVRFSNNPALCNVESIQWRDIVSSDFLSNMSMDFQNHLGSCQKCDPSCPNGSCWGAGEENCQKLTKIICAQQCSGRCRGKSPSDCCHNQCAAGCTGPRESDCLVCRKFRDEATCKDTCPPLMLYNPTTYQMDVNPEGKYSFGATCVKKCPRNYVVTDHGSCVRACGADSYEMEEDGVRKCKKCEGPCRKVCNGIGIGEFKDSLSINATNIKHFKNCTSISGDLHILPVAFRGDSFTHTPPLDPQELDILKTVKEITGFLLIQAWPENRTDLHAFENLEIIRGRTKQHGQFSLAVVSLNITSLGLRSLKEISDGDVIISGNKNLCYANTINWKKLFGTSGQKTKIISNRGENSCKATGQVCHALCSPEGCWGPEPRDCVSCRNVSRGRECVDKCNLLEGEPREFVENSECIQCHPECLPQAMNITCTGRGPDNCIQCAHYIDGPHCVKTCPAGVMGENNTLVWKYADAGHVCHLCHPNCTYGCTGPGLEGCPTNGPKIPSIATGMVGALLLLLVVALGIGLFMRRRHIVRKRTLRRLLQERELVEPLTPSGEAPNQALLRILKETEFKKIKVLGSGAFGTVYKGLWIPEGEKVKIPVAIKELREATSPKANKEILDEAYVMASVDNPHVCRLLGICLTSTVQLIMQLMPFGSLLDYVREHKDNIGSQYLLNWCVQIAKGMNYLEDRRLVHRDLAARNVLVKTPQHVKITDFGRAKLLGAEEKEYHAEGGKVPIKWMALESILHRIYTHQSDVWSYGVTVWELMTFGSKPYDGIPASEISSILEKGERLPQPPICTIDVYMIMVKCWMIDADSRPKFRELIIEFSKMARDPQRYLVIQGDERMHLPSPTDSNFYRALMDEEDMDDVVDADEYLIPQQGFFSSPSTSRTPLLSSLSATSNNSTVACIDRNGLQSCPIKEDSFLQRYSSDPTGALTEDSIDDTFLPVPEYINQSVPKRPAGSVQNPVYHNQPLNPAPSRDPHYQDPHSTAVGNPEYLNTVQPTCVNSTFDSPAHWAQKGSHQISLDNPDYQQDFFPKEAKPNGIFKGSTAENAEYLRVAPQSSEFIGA
Procedure, shortened: as §1

[3] = target: EGFR Del19/T790M/C797S (Homo sapiens, UniProt P00533, C797S/DEL746-750/T790M); assay: Biochemical EGFR kinase inhibition assay (Lance Ultra TR-FRET), triple mutant del19/T790M/C797S
Sequence of EGFR Del19/T790M/C797S (P00533 with tags, fused parts or gaps DEL746-750/T790M/C797S): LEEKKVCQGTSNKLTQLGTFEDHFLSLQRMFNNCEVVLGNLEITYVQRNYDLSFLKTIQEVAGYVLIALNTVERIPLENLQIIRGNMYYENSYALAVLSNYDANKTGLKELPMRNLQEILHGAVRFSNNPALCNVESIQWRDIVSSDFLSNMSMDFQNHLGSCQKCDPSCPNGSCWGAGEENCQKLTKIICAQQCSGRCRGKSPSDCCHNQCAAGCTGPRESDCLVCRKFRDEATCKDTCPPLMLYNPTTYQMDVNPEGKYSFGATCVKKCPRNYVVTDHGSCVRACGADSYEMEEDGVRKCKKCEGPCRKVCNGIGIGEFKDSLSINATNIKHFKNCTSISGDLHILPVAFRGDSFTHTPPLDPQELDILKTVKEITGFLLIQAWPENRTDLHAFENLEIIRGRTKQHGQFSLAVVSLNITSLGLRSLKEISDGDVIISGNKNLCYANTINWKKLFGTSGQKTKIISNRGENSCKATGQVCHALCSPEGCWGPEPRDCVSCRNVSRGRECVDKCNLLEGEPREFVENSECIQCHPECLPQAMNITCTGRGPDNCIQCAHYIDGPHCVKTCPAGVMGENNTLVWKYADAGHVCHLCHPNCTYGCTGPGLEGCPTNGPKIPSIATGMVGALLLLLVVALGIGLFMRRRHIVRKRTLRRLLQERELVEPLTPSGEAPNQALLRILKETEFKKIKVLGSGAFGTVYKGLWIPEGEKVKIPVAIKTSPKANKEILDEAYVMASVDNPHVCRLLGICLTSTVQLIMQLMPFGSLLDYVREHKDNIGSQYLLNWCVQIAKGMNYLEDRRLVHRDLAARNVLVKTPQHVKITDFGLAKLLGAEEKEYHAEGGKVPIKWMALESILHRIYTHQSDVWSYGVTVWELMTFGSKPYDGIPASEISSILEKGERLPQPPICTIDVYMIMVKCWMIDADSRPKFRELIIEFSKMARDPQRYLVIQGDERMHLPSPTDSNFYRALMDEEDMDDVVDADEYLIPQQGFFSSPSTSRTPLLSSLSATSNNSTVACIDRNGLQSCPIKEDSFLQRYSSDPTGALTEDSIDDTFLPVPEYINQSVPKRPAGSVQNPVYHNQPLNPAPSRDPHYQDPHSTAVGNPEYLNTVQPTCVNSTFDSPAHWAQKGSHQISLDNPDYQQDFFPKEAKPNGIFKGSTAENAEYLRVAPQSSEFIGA
Procedure, shortened: as §1

[4] = target: EGFR wildtype (WT) (Homo sapiens, UniProt P00533); assay: Biochemical EGFR kinase inhibition assay (Lance Ultra TR-FRET), wildtype
Sequence of EGFR wildtype (WT) (P00533 25-1210): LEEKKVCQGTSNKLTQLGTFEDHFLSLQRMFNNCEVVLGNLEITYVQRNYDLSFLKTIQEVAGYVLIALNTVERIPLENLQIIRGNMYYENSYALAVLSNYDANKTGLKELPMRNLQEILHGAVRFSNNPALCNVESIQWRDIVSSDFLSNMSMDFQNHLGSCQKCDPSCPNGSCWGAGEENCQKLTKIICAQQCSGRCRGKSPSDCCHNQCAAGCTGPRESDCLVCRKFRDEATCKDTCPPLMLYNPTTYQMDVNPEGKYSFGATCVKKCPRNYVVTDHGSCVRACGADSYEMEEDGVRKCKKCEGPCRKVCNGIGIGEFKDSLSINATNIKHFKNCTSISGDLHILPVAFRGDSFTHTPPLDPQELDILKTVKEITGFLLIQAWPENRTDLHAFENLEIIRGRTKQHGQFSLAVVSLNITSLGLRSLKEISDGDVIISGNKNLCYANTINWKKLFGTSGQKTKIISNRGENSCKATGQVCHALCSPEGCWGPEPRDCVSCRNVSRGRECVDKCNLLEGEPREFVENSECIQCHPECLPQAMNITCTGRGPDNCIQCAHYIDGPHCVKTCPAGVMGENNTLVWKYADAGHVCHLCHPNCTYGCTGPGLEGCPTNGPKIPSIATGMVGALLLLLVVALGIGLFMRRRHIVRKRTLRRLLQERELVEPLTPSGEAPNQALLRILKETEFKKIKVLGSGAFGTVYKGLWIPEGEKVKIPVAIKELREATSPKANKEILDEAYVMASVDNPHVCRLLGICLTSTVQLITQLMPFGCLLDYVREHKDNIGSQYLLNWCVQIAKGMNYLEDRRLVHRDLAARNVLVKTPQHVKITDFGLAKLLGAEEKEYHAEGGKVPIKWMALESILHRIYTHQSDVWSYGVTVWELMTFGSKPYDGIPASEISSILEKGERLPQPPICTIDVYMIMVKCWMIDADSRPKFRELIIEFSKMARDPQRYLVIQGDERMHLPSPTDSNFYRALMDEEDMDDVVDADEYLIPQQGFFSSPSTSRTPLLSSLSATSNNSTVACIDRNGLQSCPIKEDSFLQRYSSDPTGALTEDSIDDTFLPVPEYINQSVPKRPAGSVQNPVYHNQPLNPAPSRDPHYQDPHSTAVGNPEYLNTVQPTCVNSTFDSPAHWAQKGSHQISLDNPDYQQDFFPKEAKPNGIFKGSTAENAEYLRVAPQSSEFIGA
Procedure, shortened: as §1

[5] = target: EGFR L858R/C797S (Homo sapiens, UniProt P00533, C797S/L858R); assay: Biochemical EGFR kinase inhibition assay (Lance Ultra TR-FRET), double mutant L858R/C797S
Sequence of EGFR L858R/C797S (P00533 25-1210 C797S/L858R): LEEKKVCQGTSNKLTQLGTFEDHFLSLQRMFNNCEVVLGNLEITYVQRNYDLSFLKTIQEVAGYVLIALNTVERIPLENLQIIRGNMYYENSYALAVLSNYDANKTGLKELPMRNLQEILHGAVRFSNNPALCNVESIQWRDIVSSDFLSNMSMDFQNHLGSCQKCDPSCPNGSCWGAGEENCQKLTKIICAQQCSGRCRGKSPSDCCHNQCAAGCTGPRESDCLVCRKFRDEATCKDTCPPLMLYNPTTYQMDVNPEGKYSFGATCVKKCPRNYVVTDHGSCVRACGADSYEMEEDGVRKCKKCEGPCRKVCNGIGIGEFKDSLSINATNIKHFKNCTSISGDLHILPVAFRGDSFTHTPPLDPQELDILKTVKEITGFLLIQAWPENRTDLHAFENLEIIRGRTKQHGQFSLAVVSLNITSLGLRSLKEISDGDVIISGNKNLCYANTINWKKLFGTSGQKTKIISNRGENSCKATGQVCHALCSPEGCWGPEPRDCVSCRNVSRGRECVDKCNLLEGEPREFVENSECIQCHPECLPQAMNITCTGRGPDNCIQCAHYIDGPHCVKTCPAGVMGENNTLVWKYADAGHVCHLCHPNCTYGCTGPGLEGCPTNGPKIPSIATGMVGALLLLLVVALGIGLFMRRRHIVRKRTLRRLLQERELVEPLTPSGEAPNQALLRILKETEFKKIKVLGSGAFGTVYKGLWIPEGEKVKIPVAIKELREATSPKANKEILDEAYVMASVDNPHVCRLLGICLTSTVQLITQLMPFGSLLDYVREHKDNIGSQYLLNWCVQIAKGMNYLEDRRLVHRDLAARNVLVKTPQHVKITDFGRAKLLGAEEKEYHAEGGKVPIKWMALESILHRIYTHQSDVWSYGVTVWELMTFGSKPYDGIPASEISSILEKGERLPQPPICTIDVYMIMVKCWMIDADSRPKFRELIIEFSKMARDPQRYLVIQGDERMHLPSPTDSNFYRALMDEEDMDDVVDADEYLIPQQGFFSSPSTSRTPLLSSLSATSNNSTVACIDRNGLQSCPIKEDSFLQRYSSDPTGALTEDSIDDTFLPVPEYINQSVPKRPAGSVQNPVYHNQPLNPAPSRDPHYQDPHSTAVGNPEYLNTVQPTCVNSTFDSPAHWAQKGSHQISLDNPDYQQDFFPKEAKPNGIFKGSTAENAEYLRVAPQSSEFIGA
Procedure, shortened: as §1

[6] = ATP at Km, read-out: IC50 Del19/C797S (nM), Km ATP
[7] = IC50 Del19/C797S (nM), 100 μM ATP
[8] = ATP at Km, read-out: IC50 L858R/T790M/C797S (nM), Km ATP
[9] = IC50 L858R/T790M/C797S (nM), 100 μM ATP
[10] = ATP at Km, read-out: IC50 Del19/T790M/C797S (nM), Km ATP
[11] = IC50 Del19/T790M/C797S (nM), 100 μM ATP
[12] = ATP at Km, read-out: IC50 WT (nM), Km ATP
[13] = ATP at Km, read-out: IC50 L858R/C797S (nM), Km ATP
[14] = IC50 L858R/C797S (nM), 100 μM ATP
[15] = read-out: IC50 Del19/C797S (nM), 100 μM ATP
[16] = read-out: IC50 L858R/T790M/C797S (nM), 100 μM ATP
[17] = read-out: IC50 Del19/T790M/C797S (nM), 100 μM ATP
[18] = read-out: IC50 WT (nM), 100 μM ATP
[19] = read-out: IC50 L858R/C797S (nM), 100 μM ATP

CC(C)(O)[C@H]1CC[C@@H](Nc2cc(Nc3ccnc(-c4cnn(S(=O)(=O)C5CC5)c4)n3)ncc2C#Cc2ccc(CN3CCOCC3)cc2)CC1 [Example 162, 2-((1s,4s)-4-((2-((2-(1-(Cyclopropylsulfonyl)-1H-pyrazol-4-yl)pyrimidin-4-yl)amino)-5-((4-(morpholinomethyl)phenyl)ethynyl)pyridin-4-yl)amino)cyclohexyl)propan-2-ol]
IC50 [1, 6]: 44.8 nM | IC50 [1, 7]: 58.4 nM | IC50 [2, 8]: 12.2 nM | IC50 [2, 9]: 26.3 nM | IC50 [3, 10]: 27.6 nM | IC50 [3, 11]: 22.9 nM | IC50 [4, 12]: 540 nM | IC50 ([4]; IC50 WT (nM), 100 μM ATP): > 10000 nM | IC50 [5, 13]: 39.9 nM | IC50 [5, 14]: 619 nM

CN1CCN(Cc2ccc(C#Cc3cnc(Nc4ccnc(-c5cnn(S(=O)(=O)C6CC6)c5)n4)cc3N3CCC(C)(CO)CC3)cc2)CC1 [Example 164, (1-(2-((2-(1-(Cyclopropylsulfonyl)-1H-pyrazol-4-yl)pyrimidin-4-yl)amino)-5-((4-((4-methylpiperazin-1-yl)methyl)phenyl)ethynyl)pyridin-4-yl)-4-methylpiperidin-4-yl)methanol]
IC50 [1, 6]: 0.9 nM | IC50 [1, 7]: 1.6 nM | IC50 [2, 8]: 0.2 nM | IC50 [2, 9]: 0.5 nM | IC50 [3, 10]: 0.7 nM | IC50 [3, 11]: 0.6 nM | IC50 [4, 12]: 1.5 nM | IC50 ([4]; IC50 WT (nM), 100 μM ATP): 236 nM | IC50 [5, 13]: 0.6 nM | IC50 [5, 14]: 2.2 nM

C[C@]1(O)CC[C@@H](Nc2cc(Nc3ccnc(-c4cnn(S(=O)(=O)C5CC5)c4)n3)ncc2C#CCN2CCOCC2)CC1 [Example 166, (1s,4s)-4-((2-((2-(1-(Cyclopropylsulfonyl)-1H-pyrazol-4-yl)pyrimidin-4-yl)amino)-5-(3-morpholinoprop-1-yn-1-yl)pyridin-4-yl)amino)-1-methylcyclohexan-1-ol]
IC50 [1, 6]: 66.5 nM | IC50 [1, 15]: 51.1 nM | IC50 [2, 8]: 0.9 nM | IC50 [2, 16]: 3.8 nM | IC50 [3, 10]: 1.4 nM | IC50 [3, 17]: 1.9 nM | IC50 [4, 12]: 411 nM | IC50 [4, 18]: > 10000 nM | IC50 [5, 13]: 21.9 nM | IC50 [5, 19]: 194 nM

Cn1cnc(C#Cc2cnc(Nc3ccnc(-c4cnn(S(=O)(=O)C5CC5)c4)n3)cc2N[C@H]2CC[C@@H](O)CC2)n1 [Example 167, (1s,4s)-4-((2-((2-(1-(Cyclopropylsulfonyl)-1H-pyrazol-4-yl)pyrimidin-4-yl)amino)-5-((1-methyl-1,2,4-triazol-3-yl)ethynyl)pyridin-4-yl)amino)cyclohexan-1-ol]
IC50 [1, 6]: 81.8 nM | IC50 [1, 7]: 88.8 nM | IC50 [2, 8]: 3.5 nM | IC50 [2, 9]: 15.4 nM | IC50 [3, 10]: 3.7 nM | IC50 [3, 11]: 3.4 nM | IC50 [4, 12]: 279 nM | IC50 ([4]; IC50 WT (nM), 100 μM ATP): > 10000 nM | IC50 [5, 13]: 24 nM | IC50 [5, 14]: 532 nM

CCc1cnc(C#Cc2cnc(Nc3ccnc(-c4cnn(S(=O)(=O)C5CC5)c4)n3)cc2N[C@@H]2CCC[C@H](O)C2)s1 [Example 168, (1S,3R)-3-((2-((2-(1-(Cyclopropylsulfonyl)-1H-pyrazol-4-yl)pyrimidin-4-yl)amino)-5-((5-ethylthiazol-2-yl)ethynyl)pyridin-4-yl)amino)cyclohexan-1-ol]
IC50 [1, 6]: 67.9 nM | IC50 [1, 7]: 391 nM | IC50 [2, 8]: 9.1 nM | IC50 [2, 9]: 71.2 nM | IC50 [3, 10]: 11 nM | IC50 [3, 11]: 11.8 nM | IC50 [4, 12]: 6250 nM | IC50 ([4]; IC50 WT (nM), 100 μM ATP): > 10000 nM | IC50 [5, 13]: 784 nM | IC50 [5, 14]: 8370 nM

Nc1cccc(C#Cc2cnc(Nc3ccnc(-c4cnn(S(=O)(=O)C5CC5)c4)n3)cc2N[C@@H]2CCC[C@H](O)C2)c1 [Example 169, (1 S,3R)-3-((5-((3-Aminophenyl)ethynyl)-2-((2-(1-(cyclopropylsulfonyl)-1H-pyrazol-4-yl)pyrimidin-4-yl)amino)pyridin-4-yl)amino)cyclohexan-1-ol]
IC50 [1, 6]: 4.7 nM | IC50 [1, 7]: 10.5 nM | IC50 [2, 8]: 2.6 nM | IC50 [2, 9]: 6.8 nM | IC50 [3, 10]: 7.1 nM | IC50 [3, 11]: 3.1 nM | IC50 [4, 12]: 238 nM | IC50 ([4]; IC50 WT (nM), 100 μM ATP): > 10000 nM | IC50 [5, 13]: 30.6 nM | IC50 [5, 14]: 391 nM

Cc1cnc(C#Cc2cnc(Nc3ccnc(-c4cnn(S(=O)(=O)C5CC5)c4)n3)cc2N[C@@H]2CCC[C@H](O)C2)cn1 [Example 170, (1 S,3R)-3-((2-((2-(1-(Cyclopropylsulfonyl)-1H-pyrazol-4-yl)pyrimidin-4-yl)amino)-5-((5-methylpyrazin-2-yl)ethynyl)pyridin-4-yl)amino)cyclohexan-1-ol]
IC50 [1, 6]: 4.4 nM | IC50 [1, 7]: 19.9 nM | IC50 [2, 8]: 0.6 nM | IC50 [2, 9]: 5.7 nM | IC50 [3, 10]: 0.9 nM | IC50 [3, 11]: 1 nM | IC50 [4, 12]: 286 nM | IC50 ([4]; IC50 WT (nM), 100 μM ATP): > 10000 nM | IC50 [5, 13]: 23.8 nM | IC50 [5, 14]: 316 nM

O=S(=O)(C1CC1)n1cc(-c2nccc(Nc3cc(N[C@H]4CC[C@@H](O)CC4)c(C#Cc4ccc(NCCN5CCOCC5)cc4)cn3)n2)cn1 [Example 172, (1s,4s)-4-((2-((2-(1-(Cyclopropylsulfonyl)-1H-pyrazol-4-yl)pyrimidin-4-yl)amino)-5-((4-((2-morpholinoethyl)amino)phenyl)ethynyl)pyridin-4-yl)amino)cyclohexan-1-ol]
IC50 [1, 6]: 14.1 nM | IC50 [1, 15]: 32.4 nM | IC50 [2, 8]: 4.8 nM | IC50 [2, 16]: 14.5 nM | IC50 [3, 10]: 4.6 nM | IC50 [3, 17]: 6.9 nM | IC50 [4, 12]: 68.4 nM | IC50 [4, 18]: > 10000 nM | IC50 [5, 13]: 11.5 nM | IC50 [5, 19]: 124 nM

O=S(=O)(C1CC1)n1cc(-c2nccc(Nc3cc(N[C@H]4CC[C@@H](O)CC4)c(C#Cc4cccc(NCCN5CCOCC5)c4)cn3)n2)cn1 [Example 173, (1s,4s)-4-((2-((2-(1-(Cyclopropylsulfonyl)-1H-pyrazol-4-yl)pyrimidin-4-yl)amino)-5-((3-((2-morpholinoethyl)amino)phenyl)ethynyl)pyridin-4-yl)amino)cyclohexan-1-ol]
IC50 [1, 6]: 6.2 nM | IC50 [1, 15]: 8.5 nM | IC50 [2, 8]: 1.3 nM | IC50 [2, 16]: 10.5 nM | IC50 [3, 10]: 2.9 nM | IC50 [3, 17]: 9.9 nM | IC50 [4, 12]: 22.9 nM | IC50 [4, 18]: > 10000 nM | IC50 [5, 13]: 7.8 nM | IC50 [5, 19]: 100 nM

O=S(=O)(C1CC1)n1cc(-c2nccc(Nc3cc(N[C@H]4CC[C@@H](O)CC4)c(C#CC4(O)CCCCC4)cn3)n2)cn1 [Example 174, 1-((6-((2-(1-(Cyclopropylsulfonyl)-1H-pyrazol-4-yl)pyrimidin-4-yl)amino)-4-(((1 s, 4s)-4-hydroxycyclohexyl)amino)pyridin-3-yl)ethynyl)cyclohexan-1-ol]
IC50 [1, 6]: 11 nM | IC50 [1, 7]: 10.8 nM | IC50 [2, 8]: 1.2 nM | IC50 [2, 9]: 2.1 nM | IC50 [3, 10]: 0.5 nM | IC50 [3, 11]: 0.9 nM | IC50 [4, 12]: 150 nM | IC50 ([4]; IC50 WT (nM), 100 μM ATP): > 10000 nM | IC50 [5, 13]: 30.5 nM | IC50 [5, 14]: 283 nM

CC1(CO)CCN(c2cc(Nc3ccnc(-c4cnn(S(=O)(=O)C5CC5)c4)n3)ncc2C#CC2(O)CCCCC2)CC1 [Example 175, 1-((6-((2-(1-(Cyclopropylsulfonyl)-1H-pyrazol-4-yl)pyrimidin-4-yl)amino)-4-(4-(hydroxymethyl)-4-methylpiperidin-1-yl)pyridin-3-yl)ethynyl)cyclohexan-1-ol]
IC50 [1, 6]: 13.3 nM | IC50 [1, 7]: 17.2 nM | IC50 [2, 8]: 3.6 nM | IC50 [2, 9]: 3.6 nM | IC50 [3, 10]: 1.2 nM | IC50 [3, 11]: 1.4 nM | IC50 [4, 12]: 131 nM | IC50 ([4]; IC50 WT (nM), 100 μM ATP): > 10000 nM | IC50 [5, 13]: 33.5 nM | IC50 [5, 14]: 333 nM
